Laboratory results as given in patent US20230263742A1, “A LIPID” (Stemirna Therapeutics Co., Ltd., priority 2021, published 2023).
One block for each compound: values may come before it.

What was measured:
[1] = system: Balb/C mice; assay: In vivo Luc expression after tail vein injection of Luc mRNA-LNP; details: 5 μg Luc mRNA-LNP tail vein, 6 hours
Protocol: In vivo expression evaluation method: 5 μg Luc (luciferase) mRNA-LNP solution of SW-II-118, SW-120, or SW-121 were injected into the tail vein of Balb/C mice. 6 hours after the administration, the mice are injected 0.15 mg/kg of […] substrate intraperitoneally. Within 15 minutes after the injection of the substrate, the fluorescence signal intensity was tested under a small animal in vivo imaging instrument.

[2] = system: HepG2 cells; assay: In vitro cell Luc expression, HepG2; format: cell-based; details: 100 ng Luc mRNA-LNP, 24 h
Protocol: (§1) In vitro cell expression evaluation method: C2C12 cells, HepG2 cells, A20 cells were cultured, and 100,000 cells per well were plated on a 96-well plate. 100 ng of LNP samples were mixed with the cells and incubated for 24 hours (n=3), and then the expression was detected using luciferase quantitative kit 24 h after administration.

[3] = Encapsulation efficiency (RIBOGREEN kit); format: physicochemical; details: Luc mRNA-LNP 50:10:38.5:1.5
Protocol: For nanoparticle compositions including an RNA, a QUANT-IT™ RIBOGREENR®RNA assay (Invitrogen Corporation Carlsbad, Calif.) can be used to evaluate the encapsulation of an RNA by the nanoparticle composition. The samples were diluted to a concentration of approximately 5 μg/mL in a TE buffer solution (10 mM Tris-HCl, 1 mM EDTA, pH 7.5). 50 μL of the diluted samples are transferred to a polystyrene 96 well plate and either 50 μL of TE buffer or 50 μL of a 2% Triton X-100 solution is added to the wells. The plate is incubated at a temperature of 37° C. for 15 minutes. The RIBOGREENR reagent is diluted 1:100 in TE buffer and 100 μL of this solution is added to each well. The fluorescence intensity can be measured using a fluorescence plate reader (Wallac Victor 1420 Multilablel Counter; Perkin Elmer, Waltham, Mass.) at an excitation wavelength of, for example, about 480 nm and an emission wavelength of, for example, about 520 nm. The fluorescence values of the reagent blank are subtracted from that of each of the samples and the percentage of free RNA is determined by dividing the fluorescence intensity of the intact sample (without addition of Triton X-100) by the fluorescence value of the disrupted sample (caused by the addition of Triton X-100).
Encapsulation efficiency detection method: LNP content and encapsulation efficiency detection were carried out according to the RIBOGREEN kit.

[4] = Particle size, PDI and zeta potential by dynamic light scattering; format: physicochemical; details: for PDI / Zeta potential: Luc mRNA-LNP 50:10:38.5:1.5; for Size: Luc mRNA-LNP, lipid:phospholipid:cholesterol:PEG-DMG 50:10:38.5:1.5
Protocol: A Zetasizer Nano ZS (Malvern Instruments Ltd, Malvern, Worcestershire, UK) can be used to determine the particle size, the polydispersity index (PDI) and the zeta (ζ) potential of the nanoparticle compositions in 1×PBS in determining particle size and 15 mM PBS in determining zeta (ζ) potential.
The evaluation method of particle size and zeta potential: 50 μL LNP sample was diluted with 950 μL purified water to obtain the diluted LNP sample. The sample was placed in a dynamic light scattering laser particle size analyzer (Malvern, ZS-90) for testing.

[5] = system: Balb/C mice; assay: In vivo Luc expression after intramuscular injection, compared with MC3 (Example 4); details: 5 μg Luc mRNA-LNP (DSPC) intramuscularly, Balb/C mice n=3, 6 hours; for in vivo Luc expressions (FIG. 2): compared with MC3
Protocol: The mRNA nanoparticle compositions of SW-II-118, SW-120, and SW-121 were prepared according to the method provided in Example 3. The ratios of the lipids were 50:10:38.5:1.5 mol % for cationic lipid: DSPC: cholesterol: PEG-DMG. The cationic lipid MC3 was a current standard in the art. Accordingly, the standard MC3 formulation including 50 mol % MC3, 10 mol % DSPC, 38.5 mol % cholesterol, and 1.5 mol % PEG-DMG was used as a reference for this study.
5 μg of Luc mRNA-LNP of MC3, SW-II-118, SW-II-120, or SW-II-121 was intramuscularly injected into Balb/C mice (n=3). 6 hours after the administration, the mice were injected intraperitoneally with 0.15 mg/kg […] substrate. 15 minutes after the injection of the substrate, the fluorescence signal intensity was tested under a small animal in vivo imaging instrument.

[6] = system: cells; assay: Cytotoxicity, CCK-8 cell viability; format: cell-based; details: 200 ng LNP, 24 h, CCK-8, vs cells blank
Protocol: Evaluation method of cytotoxicity: 200 ng of LNP samples were mixed with cells and incubated for 24 h, then the viability was detected using CCK-8 cell viability detection kit. 10 μl of CCK-8 detection reagent was added to the transfected cells and the OD value was detected using a microplate reader at a detection wavelength of 450 nm. The cell viability percentage is obtained by comparing the OD value with that of the cells blank.

[7] = system: C2C12 cells; assay: In vitro cell Luc expression, C2C12; format: cell-based; details: 100 ng Luc mRNA-LNP, 24 h
Protocol: as §1

Encapsulation Efficiency (EE, %) ([3]; phospholipid DAPC): 86.4%
Encapsulation Efficiency (EE, %) ([3]; phospholipid DMPE): 86.2%
Encapsulation Efficiency (EE, %) ([3]; phospholipid DOPE): 87.5%
Encapsulation Efficiency (EE, %) ([3]; phospholipid DPPC): 83.4%
Encapsulation Efficiency (EE, %) ([3]; phospholipid DSPC): 76.0%
Encapsulation Efficiency (EE, %) ([3]; phospholipid DSPE): 81.0%
PDI ([4]; phospholipid DAPC): 0.28 ± 0.03
Zeta potential ([4]; phospholipid DAPC): −7.18 ± 0.42 mV
Size ([4]; phospholipid DAPC): 93.8 ± 1.6 nm
PDI ([4]; phospholipid DMPE): 0.29 ± 0.01
Zeta potential ([4]; phospholipid DMPE): −1.59 ± 0.19 mV
Size ([4]; phospholipid DMPE): 102.8 ± 2.3 nm
PDI ([4]; phospholipid DOPE): 0.10 ± 0.04
Zeta potential ([4]; phospholipid DOPE): −4.31 ± 1.36 mV
Size ([4]; phospholipid DOPE): 111.3 ± 2.0 nm
PDI ([4]; phospholipid DPPC): 0.26 ± 0.06
Zeta potential ([4]; phospholipid DPPC): −2.32 ± 0.32 mV
Size ([4]; phospholipid DPPC): 97.3 ± 2.6 nm
PDI ([4]; phospholipid DPPE): 0.54 ± 0.41
Zeta potential ([4]; phospholipid DPPE): −0.80 ± 0.58 mV
Size ([4]; phospholipid DPPE): 265.7 ± 306.1 nm
PDI ([4]; phospholipid DSPC): 0.37 ± 0.02
Zeta potential ([4]; phospholipid DSPC): −1.65 ± 0.58 mV
Size ([4]; phospholipid DSPC): 108.7 ± 2.5 nm
PDI ([4]; phospholipid DSPE): 0.21 ± 0.01
Zeta potential ([4]; phospholipid DSPE): −11.97 ± 1.19 mV
Size ([4]; phospholipid DSPE): 103.4 ± 2.0 nm
Compound: CCCCCCCCC(CCCCCCCC)OC(=O)CCCCCCCN(CCO)CCCCCCCC(=O)OCCc1ccc(CCCC)cc1 [SW-II-118]
In vivo expression ([1]; phospholipid DAPC): 8658333.3 p/sec/cm^2/sr
In vivo expression ([1]; phospholipid DMPE): 23780.0 p/sec/cm^2/sr
In vivo expression ([1]; phospholipid DOPE): 38066666.7 p/sec/cm^2/sr
In vivo expression ([1]; phospholipid DPPC): 34323333.3 p/sec/cm^2/sr
In vivo expression ([1]; phospholipid DPPE): 25176.7 p/sec/cm^2/sr
In vivo expression ([1]; phospholipid DSPC): 40156666.7 p/sec/cm^2/sr
In vivo expression ([1]; phospholipid DSPE): 25383333.3 p/sec/cm^2/sr
HepG2 cell, in vitro expression ([2]; phospholipid DAPC): 6674
HepG2 cell, in vitro expression ([2]; phospholipid DMPE): 17608.5
HepG2 cell, in vitro expression ([2]; phospholipid DOPE): 17838.5
HepG2 cell, in vitro expression ([2]; phospholipid DPPC): 31083
HepG2 cell, in vitro expression ([2]; phospholipid DPPE): 86
HepG2 cell, in vitro expression ([2]; phospholipid DSPC): 11247.5
HepG2 cell, in vitro expression ([2]; phospholipid DSPE): 3053
Luc expression in liver site compared with injection site (FIG. 2) [5]: higher than that in injection site
in vivo Luc expressions (FIG. 2) [5]: higher than that of MC3
Viability (%) ([6]; phospholipid DAPC): 104.0%
Viability (%) ([6]; phospholipid DMPE): 110.8%
Viability (%) ([6]; phospholipid DOPE): 98.7%
Viability (%) ([6]; phospholipid DPPC): 105.4%
Viability (%) ([6]; phospholipid DPPE): 162.7%
Viability (%) ([6]; phospholipid DSPC): 103.0%
Viability (%) ([6]; phospholipid DSPE): 113.9%
C2C12 cell, in vitro expression ([7]; phospholipid DAPC): 32703.5
C2C12 cell, in vitro expression ([7]; phospholipid DMPE): 218015.5
C2C12 cell, in vitro expression ([7]; phospholipid DOPE): 300431.5
C2C12 cell, in vitro expression ([7]; phospholipid DPPC): 260091
C2C12 cell, in vitro expression ([7]; phospholipid DPPE): 1254.5
C2C12 cell, in vitro expression ([7]; phospholipid DSPC): 80658
C2C12 cell, in vitro expression ([7]; phospholipid DSPE): 46290.5

Encapsulation Efficiency (EE, %) ([3]; phospholipid DAPC): 84.3%
Encapsulation Efficiency (EE, %) ([3]; phospholipid DMPE): 86.2%
Encapsulation Efficiency (EE, %) ([3]; phospholipid DOPE): 90.9%
Encapsulation Efficiency (EE, %) ([3]; phospholipid DPPC): 84.9%
Encapsulation Efficiency (EE, %) ([3]; phospholipid DPPE): 64.7%
Encapsulation Efficiency (EE, %) ([3]; phospholipid DSPC): 85.3%
PDI ([4]; phospholipid DAPC): 0.28 ± 0.02
Zeta potential ([4]; phospholipid DAPC): −4.82 ± 0.28 mV
Size ([4]; phospholipid DAPC): 97.1 ± 1.6 nm
PDI ([4]; phospholipid DMPE): 0.20 ± 0.02
Zeta potential ([4]; phospholipid DMPE): −6.08 ± 0.43 mV
Size ([4]; phospholipid DMPE): 92.7 ± 1.1 nm
PDI ([4]; phospholipid DOPE): 0.13 ± 0.02
Zeta potential ([4]; phospholipid DOPE): 2.09 ± 0.28 mV
Size ([4]; phospholipid DOPE): 142.9 ± 1.9 nm
PDI ([4]; phospholipid DPPC): 0.22 ± 0.01
Zeta potential ([4]; phospholipid DPPC): −3.23 ± 2.95 mV
Size ([4]; phospholipid DPPC): 92.97 ± 0.7 nm
PDI ([4]; phospholipid DPPE): 0.15 ± 0.04
Zeta potential ([4]; phospholipid DPPE): −5.04 ± 1.16 mV
Size ([4]; phospholipid DPPE): 115.3 ± 3.7 nm
PDI ([4]; phospholipid DSPC): 0.20 ± 0.01
Zeta potential ([4]; phospholipid DSPC): 0.61 ± 0.55 mV
Size ([4]; phospholipid DSPC): 88.7 ± 1.1 nm
PDI ([4]; phospholipid DSPE): 0.22 ± 0.02
Zeta potential ([4]; phospholipid DSPE): −5.15 ± 2.37 mV
Size ([4]; phospholipid DSPE): 106.5 ± 5.5 nm
Compound: CCCCCCCCC(CCCCCCCC)OC(=O)CCCCCCCN(CCO)CCCCCCCC(=O)OCCc1ccc(CCCCCC)cc1 [SW-II-120]
In vivo expression ([1]; phospholipid DAPC): 39073333.3 p/sec/cm^2/sr
In vivo expression ([1]; phospholipid DMPE): 49736666.7 p/sec/cm^2/sr
In vivo expression ([1]; phospholipid DOPE): 5083666.7 p/sec/cm^2/sr
In vivo expression ([1]; phospholipid DPPC): 21307300.0 p/sec/cm^2/sr
In vivo expression ([1]; phospholipid DPPE): 7056000.0 p/sec/cm^2/sr
In vivo expression ([1]; phospholipid DSPC): 58040000.0 p/sec/cm^2/sr
In vivo expression ([1]; phospholipid DSPE): 128056666.7 p/sec/cm^2/sr
HepG2 cell, in vitro expression ([2]; phospholipid DAPC): 4555.5
HepG2 cell, in vitro expression ([2]; phospholipid DMPE): 31448.5
HepG2 cell, in vitro expression ([2]; phospholipid DOPE): 83649.5
HepG2 cell, in vitro expression ([2]; phospholipid DPPC): 24199.5
HepG2 cell, in vitro expression ([2]; phospholipid DPPE): 57343
HepG2 cell, in vitro expression ([2]; phospholipid DSPC): 13068
HepG2 cell, in vitro expression ([2]; phospholipid DSPE): 2482
Luc expression in liver site compared with injection site (FIG. 2) [5]: higher than that in injection site
in vivo Luc expressions (FIG. 2) [5]: higher than that of MC3
Viability (%) ([6]; phospholipid DAPC): 99.0%
Viability (%) ([6]; phospholipid DMPE): 87.9%
Viability (%) ([6]; phospholipid DOPE): 115.0%
Viability (%) ([6]; phospholipid DPPC): 102.9%
Viability (%) ([6]; phospholipid DPPE): 107.1%
Viability (%) ([6]; phospholipid DSPC): 102.3%
Viability (%) ([6]; phospholipid DSPE): 97.9%
C2C12 cell, in vitro expression ([7]; phospholipid DAPC): 17847.5
C2C12 cell, in vitro expression ([7]; phospholipid DMPE): 228078.5
C2C12 cell, in vitro expression ([7]; phospholipid DOPE): 815187.5
C2C12 cell, in vitro expression ([7]; phospholipid DPPC): 147377.5
C2C12 cell, in vitro expression ([7]; phospholipid DPPE): 471290.5
C2C12 cell, in vitro expression ([7]; phospholipid DSPC): 44819
C2C12 cell, in vitro expression ([7]; phospholipid DSPE): 51132.5
